Literature values, collected in patent US5093372A, “Novel pharmaceutical composition comprising exifone and water-soluble polymer” (Fujisawa Pharmaceutical Co. Inc., priority 1987, dated 1992).

Experiments:
[1] = orally administered as a conventional pharmaceutical composition

- solubility in water (in words): sparingly soluble in water
- saturated solubility in water (about): 70 to 80 µg/mL
- absorption into blood circulation (in words) [1]: poor
- bioavailability (in words) [1]: low
SMILES: O=C(c1cc(O)c(O)c(O)c1)c1ccc(O)c(O)c1O [exifone]
